Tests used:
Candida albicans KMM 455 = assay: Antimicrobial activity, microbial growth in broth (OD620); assay type: cell-based; conditions: for inhibition of growth at 100 µM: Candida albicans, KMM455, compound at 100 µM, read-out: Inhibition of Microbial Growth, % of Control, C. albicans
Method: (§1) The yeast-like fungus Candida albicans KMM 455 and bacterial strains Staphylococcus aureus ATCC 21027 and Escherichia coli VKPM (B-7935) (Collection of Marine Microorganisms PIBOC FEB RAS) were cultured on solid-medium Mueller–Hinton broth with agar (16.0 g/L) in a Petri dish at 37 °C for 24 h. The assays were performed in 96-well microplates in an appropriate Mueller–Hinton broth. Each well contained 90 µL of a bacterial or yeast-like fungal suspension (10^6 CFU/mL). Then, 10 µL was added of a compound diluted at concentrations from 1.5 µM to 100.0 µM using twofold dilution (DMSO concentration < 1%). Culture plates were incubated overnight at 37 °C, and the OD620 was measured using a Multiskan FC spectrophotometer (Thermo Scientific Inc., Beverly, MA, USA). The antibiotic gentamicin and antifungal agent nitrofungin were used as positive controls at 1 mg/mL; 1% DMSO in PBS served as a negative control. Examination was performed twice and in triplicate. The results were calculated as a percentage of the control data using SigmaPlot 14.0 software.

[1] = test system: Staphylococcus aureus ATCC 21027; assay: as above; assay type: cell-based; conditions: read-out: Inhibition of Microbial Growth, % of Control, S. aureus; for inhibition of growth at 100 µM: ATCC21027, compound at 100 µM
Method: as §1

[2] = test system: Escherichia coli VKPM (B-7935); assay: as above; assay type: cell-based; conditions: read-out: Inhibition of Microbial Growth, % of Control, E. coli; for inhibition of growth at 100 µM: compound at 100 µM
Method: as §1

[3] = test system: human prostate PC-3 cancer cells; assay: Cytotoxic activity (MTT assay); assay type: cell-based; conditions: 100 µM, 24 h, MTT
Method: (§2) The human prostate cancer cells PC-3 and CRL-1435 and the human embryonic kidney cells HEK-293 and CRL-1573TM were purchased from the American Type Culture Collection (ATCC; Manassas, VA, USA). PC-3 and HEK-293 cells were cultured in DMEM medium containing 10% fetal bovine serum (Biolot, St. Petersburg, Russia) and 1% penicillin/streptomycin (Biolot, St. Petersburg, Russia) at 37 °C in a humidified atmosphere with 5% (v/v) CO2. The cells were incubated in cultural flasks until sub-confluent (~80%).
(§3) PC-3 cells (5 × 10^3 cells/well) and HEK 293 cells (8 × 10^3 cells/well) were seeded in a 96-well plate and incubated overnight. […] Cell viability was then determined by the MTT (3-(4,5-dimethylthiazol-2-yl)-2,5-diphenyltetrazolium bromide) method according to the manufacturer’s instructions (Sigma-Aldrich, St. Louis, MO, USA). The absorbance of the converted formazan was measured using a Multiskan FC microplate photometer (Thermo Scientific, Waltham, MA, USA) at λ = 570 nm. The results are presented as percentages of the control data.

[4] = test system: CoCl2-treated HEK-293 cells; assay: Lipid peroxidation level (MitoCLox) in CoCl2-treated cells; assay type: cell-based, human; conditions: MitoCLox fluorescence dye
Method: The fluorescence probe MitoCLox (Lumiprobe, Moscow, Russia) was used for the detection of the lipid peroxidation level in CoCl2-treated cells. It was added in the cells for 1 h at a concentration of 200 nM. After 1 h, the cells were washed with PBS and fluorescence was measured in ratiometric mode with λem = 520/590 nm using a PHERAStar FS plate reader (BMG Labtech, Offenburg, Germany). The data were processed with MARS Data Analysis v. 3.01R2 (BMG Labtech, Offenburg, Germany) and calculated as a 520/590 ratio.

[5] = test system: breast MCF-7 cancer cells; assay: Cytotoxic activity (MTT assay); assay type: cell-based, human; conditions: 100 µM, 24 h, MTT
Method: (§4) The influence of compounds 1, 2 and 4–14 on the viability of normal human kidney […] cells, as well as human prostate PC-3, cervical HeLa and breast MCF-7 cancer cells, was measured using the MTT assay after 24 h of treatment.
as §3

[6] = test system: normal human kidney cells; assay: Cytotoxic activity (MTT assay); assay type: cell-based; conditions: 100 µM, 24 h
Method: as §4, §2
PC-3 cells (5 × 10^3 cells/well) and HEK 293 cells (8 × 10^3 cells/well) were seeded in a 96-well plate and incubated overnight. Then, compounds were added at concentrations of 1–100 μM and incubated for another 24 h. Cell viability was then determined by the MTT (3-(4,5-dimethylthiazol-2-yl)-2,5-diphenyltetrazolium bromide) method according to the manufacturer’s instructions (Sigma-Aldrich, St. Louis, MO, USA). The absorbance of the converted formazan was measured using a Multiskan FC microplate photometer (Thermo Scientific, Waltham, MA, USA) at λ = 570 nm. The results are presented as percentages of the control data.

[7] = test system: cervical HeLa cancer cells; assay: Cytotoxic activity (MTT assay); assay type: cell-based, human; conditions: 24 h; for Cell Viability, % of Control, HeLa: 100 µM, MTT; for IC50: Homo sapiens, HeLa, read-out: IC50, HeLa cell viability
MCF-7 cells = assay: Drug combination study with doxorubicin (MTT); assay type: cell-based, human; conditions: 24 h

SMILES | inhibition of growth at 100 µM (Candida albicans KMM 455) [%] | inhibition of growth at 100 µM [1] [%] | inhibition of growth at 100 µM [2] [%] | Cell Viability, % of Control, PC-3 [3] | lipid peroxide levels in CoCl2-treated HEK-293 cells [4] | Cell Viability, % of Control, MCF-7 [5] | Cell Viability, % of Control, HEK-298 [6] | Cell Viability, % of Control, HeLa [7] | IC50 [7] [µM] | inhibition of growth at 1000 µg/mL ([1]; ATCC21027, positive control at 1 mg/mL) [%] | inhibition of growth at 1000 µg/mL ([2]; positive control at 1 mg/mL) [%] | decrease of MCF-7 cell viability (MCF-7 cells; doxorubicin alone at 0.1 µM) [%] | decrease of MCF-7 cell viability (MCF-7 cells; doxorubicin alone at 1 µM) | Inhibition of Microbial Growth, % of Control, C. albicans (Candida albicans KMM 455; positive control at 1 mg/mL)
CC1=C[C@H](O)[C@H]2C[C@@H](C)CC[C@@H]2[C@H]1C(=O)CCO [Compound 1, zosteropenilline M] | 8.32 ± 0.62 | 30.1 ± 2.42 | 0 | 89.25 ± 0.44 % of Control | significantly decreased | 86.42 ± 1.76 % of Control | 95.16 ± 4.01 % of Control | 66.49 ± 6.19 % of Control |  |  |  |  |  | 
CC1=CC(O)C2CC(C)(O)CCC2C1C(=O)CCO (stereo not drawn) [Compound 2, 11-epi-8-hydroxyzosteropenilline M] | 6.12 ± 1.89 | 0 | 0 | 90.98 ± 2.82 % of Control |  | 57.46 ± 1.82 % of Control | 90.98 ± 2.82 % of Control | 44.12 ± 5.13 % of Control | 87.3 |  |  |  |  | 
CC1(O)CCC2C(C=CC(C)(O)C2C(=O)CCO)C1 (centres unmarked) [Compound 4, 8-hydroxyzosteropenilline G] | 11 ± 2.31 | 0 | 0 | 94.71 ± 1.53 % of Control |  | 81.92 ± 3.92 % of Control | 94.71 ± 1.53 % of Control | 81.80 ± 6.76 % of Control |  |  |  |  |  | 
CC(=O)[C@@H]1[C@H]2CC[C@@](C)(O)C[C@@H]2C=C[C@@]1(C)O [Compound 5, zosteropenilline O] | 35.3 ± 1.16 | 0 | 0 | 91.20 ± 3.37 % of Control | significantly decreased | 77.40 ± 2.73 % of Control | 85.64 ± 1.85 % of Control | 37.12 ± 3.85 % of Control | 82.5 |  |  |  |  | 
CC(=O)[C@@H]1[C@H]2CC[C@H](CO)C[C@@H]2C=C[C@@]1(C)O [Compound 6, zosteropenilline P] | 17.3 ± 2.55 | 29 ± 1.66 | 0 | 83.15 ± 1.72 % of Control |  | 82.05 ± 1.31 % of Control | 83.26 ± 3.78 % of Control | 71.44 ± 3.99 % of Control |  |  |  |  |  | 
CC(=O)C1C2CCC(C)C(O)C2C=CC1(C)O (centres unmarked) [Compound 7, zosteropenilline Q] | 19.2 ± 3.12 | 29.9 ± 4.5 | 0 | 88.70 ± 1.10 % of Control |  | 76.23 ± 4.53 % of Control | 80.00 ± 0.99 % of Control | 80.80 ± 3.25 % of Control |  |  |  |  |  | 
C[C@H]1C=C[C@H]2[C@H](O)[C@@H](C)CC[C@@H]2[C@H]1C(=O)CCO [Compound 8, 13-dehydroxypallidopenilline A] | 0 | 19.9 ± 1.82 | 0 | 83.60 ± 1.81 % of Control |  | 81.21 ± 5.56 % of Control | 86.10 ± 2.24 % of Control | 72.66 ± 2.49 % of Control |  |  |  |  |  | 
C[C@H]1CC[C@H]2C(=C[C@@H](O)[C@@](C)(O)[C@@H]2C(=O)CCO)C1 [Compound 9, zosteropenilline R] | 12 ± 1.14 | 11.7 ± 1.71 | 0 | 96.44 ± 7.63 % of Control | significantly decreased | 79.64 ± 1.67 % of Control | 96.45 ± 7.64 % of Control | 79.14 ± 6.36 % of Control |  |  |  |  |  | 
CC1CCC2C(C1)C(Cl)C(O)C(C)(O)C2C(=O)CCO (centres unmarked) [Compound 10, zosteropenilline S] | 0 | 15.7 ± 0.36 | 0 | 85.98 ± 2.13 % of Control |  | 84.85 ± 4.90 % of Control | 98.10 ± 1.15 % of Control | 68.69 ± 6.21 % of Control |  |  |  |  |  | 
C[C@H]1CC[C@H]2[C@@H](C=C[C@@](C)(O)[C@@H]2C(=O)CCO)[C@@H]1O [Compound 13, pallidopenilline A] | 0 | 15.5 ± 1.35 | 0 | 89.76 ± 3.31 % of Control |  | 95.05 ± 1.51 % of Control | 89.76 ± 3.31 % of Control | 71.85 ± 3.02 % of Control |  |  |  |  |  | 
CNC(C)C1CCC(N)C(OC2C(N)CC(N)C(OC3OCC(C)(O)C(NC)C3O)C2O)O1 (centres unmarked) [Gentamicin, gentamicin, reference compound] |  |  |  |  |  |  |  |  |  | 98.6 ± 1.15 | 97.6 ± 2.1 |  |  | 
COc1cccc2c1C(=O)c1c(O)c3c(c(O)c1C2=O)C[C@@](O)(C(=O)CO)C[C@@H]3O[C@H]1C[C@H](N)[C@H](O)[C@H](C)O1 [doxorubicin, reference compound] |  |  |  |  |  |  |  |  |  |  |  | 30 | approximately 60% | 
O=[N+]([O-])c1ccc(O)c(Cl)c1 [nitrofungin, reference compound] |  |  |  |  |  |  |  |  |  |  |  |  |  | 98.13 ± 0.69 % of Control
